Laboratory results published in PubChem BioAssay (NCI).
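Step 1: Grow cells in 96-well plates. Step 2: Expose to compound for 48 hours at 5 concentrations. Step 3: Interpolate endpoints linearly; if unreached, use highest concentration. At the TGI there is no net growth.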

What was measured:
Assay in all cases: DTP human tumour cell line panel, 48 h
[1] = test system: DU-145 prostate
[2] = test system: NCI-H460 lung
[3] = test system: HCC-2998 colon
[4] = test system: SK-MEL-2 melanoma
[5] = test system: KM12 colon
[6] = test system: UACC-257 melanoma
[7] = test system: COLO 205 colon
[8] = test system: HL-60(TB) leukemia
[9] = test system: 786-0 renal
[10] = test system: OVCAR-8 ovarian
[11] = test system: NCI/ADR-RES ovarian
[12] = test system: PC-3 prostate
[13] = test system: HOP-92 NSCLC
[14] = test system: ACHN renal
[15] = test system: HOP-62 NSCLC
[16] = test system: K-562 leukemia
[17] = test system: MOLT-4 leukemia
[18] = test system: HS 578T breast
[19] = test system: OVCAR-5 ovarian
[20] = test system: EKVX NSCLC
[21] = test system: IGROV1 ovarian
[22] = test system: A549 NSCLC
[23] = test system: SNB-19 CNS
[24] = test system: HCT-15 colon
[25] = test system: UO-31 renal
[26] = test system: CCRF-CEM leukemia
[27] = test system: U251 CNS
[28] = test system: SW-620 colon
[29] = test system: MDA-MB-231 breast
[30] = test system: A498 renal
[31] = test system: OVCAR-3 ovarian
[32] = test system: HT29 colon
[33] = test system: NCI-H23 lung
[34] = test system: SR leukemia
[35] = test system: UACC-62 melanoma
[36] = test system: MDA-N
[37] = test system: BT-549 breast
[38] = test system: LOX IMVI melanoma
[39] = test system: SF-268 CNS
[40] = test system: RXF 393 renal
[41] = test system: SN12C renal
[42] = test system: SK-MEL-5 melanoma
[43] = test system: SK-MEL-28 melanoma
[44] = test system: M14 melanoma
[45] = test system: TK-10 renal
[46] = test system: CAKI-1 renal
[47] = test system: SNB-75 CNS
[48] = test system: RPMI-8226 leukemia
[49] = test system: NCI-H522 lung
[50] = test system: T-47D breast
[51] = test system: HCT-116 colon
[52] = test system: MDA-MB-435
[53] = test system: MALME-3M melanoma
[54] = test system: SF-539 CNS
[55] = test system: SF-295 CNS
[56] = test system: MCF7 breast
[57] = test system: OVCAR-4 ovarian
[58] = test system: SK-OV-3 ovarian
[59] = test system: NCI-H226 lung

SMILES: CC(C)(C)OC(=O)NC(Cc1ccc(OCc2ccccc2)cn1)C(=O)N1CCCC1 (centres undefined)
- TGI [1]: > 100 µM
- TGI [2]: > 100 µM
- TGI [3]: > 100 µM
- TGI [4]: > 100 µM
- TGI [5]: > 100 µM
- TGI [6]: > 100 µM
- TGI [7]: > 100 µM
- TGI [8]: > 100 µM
- TGI [9]: > 100 µM
- TGI [10]: > 100 µM
- TGI [11]: 91.8 µM
- TGI [12]: > 100 µM
- TGI [13]: > 100 µM
- TGI [14]: > 100 µM
- TGI [15]: > 100 µM
- TGI [16]: > 100 µM
- TGI [17]: > 100 µM
- TGI [18]: > 100 µM
- TGI [19]: > 100 µM
- TGI [20]: > 100 µM
- TGI [21]: > 100 µM
- TGI [22]: > 100 µM
- TGI [23]: > 100 µM
- TGI [24]: > 100 µM
- TGI [25]: > 100 µM
- TGI [26]: > 100 µM
- TGI [27]: > 100 µM
- TGI [28]: > 100 µM
- TGI [29]: > 100 µM
- TGI [30]: > 100 µM
- TGI [31]: > 100 µM
- TGI [32]: > 100 µM
- TGI [33]: > 100 µM
- TGI [34]: > 100 µM
- TGI [35]: > 100 µM
- TGI [36]: > 100 µM
- TGI [37]: 96.7 µM
- TGI [38]: > 100 µM
- TGI [39]: > 100 µM
- TGI [40]: > 100 µM
- TGI [41]: > 100 µM
- TGI [42]: 41.9 µM
- TGI [43]: > 100 µM
- TGI [44]: > 100 µM
- TGI [45]: > 100 µM
- TGI [46]: > 100 µM
- TGI [47]: > 100 µM
- TGI [48]: > 100 µM
- TGI [49]: > 100 µM
- TGI [50]: > 100 µM
- TGI [51]: > 100 µM
- TGI [52]: > 100 µM
- TGI [53]: > 100 µM
- TGI [54]: 67.4 µM
- TGI [55]: > 100 µM
- TGI [56]: > 100 µM

SMILES: NC(N)=N/N=C\c1ccc(C2CCNCC2)cc1
- TGI [1]: > 100 µM
- TGI [2]: > 100 µM
- TGI [3]: > 100 µM
- TGI [4]: > 100 µM
- TGI [5]: > 100 µM
- TGI [6]: > 100 µM
- TGI [7]: > 100 µM
- TGI [9]: > 100 µM
- TGI [10]: > 100 µM
- TGI [57]: > 100 µM
- TGI [11]: > 100 µM
- TGI [12]: > 100 µM
- TGI [13]: > 100 µM
- TGI [14]: > 100 µM
- TGI [15]: > 100 µM
- TGI [16]: > 100 µM
- TGI [17]: > 100 µM
- TGI [18]: > 100 µM
- TGI [19]: > 100 µM
- TGI [20]: > 100 µM
- TGI [21]: > 100 µM
- TGI [22]: > 100 µM
- TGI [23]: > 100 µM
- TGI [24]: > 100 µM
- TGI [25]: > 100 µM
- TGI [26]: > 100 µM
- TGI [27]: > 100 µM
- TGI [28]: > 100 µM
- TGI [29]: > 100 µM
- TGI [30]: > 100 µM
- TGI [31]: > 100 µM
- TGI [32]: > 100 µM
- TGI [33]: > 100 µM
- TGI [34]: > 100 µM
- TGI [35]: > 100 µM
- TGI [58]: > 100 µM
- TGI [36]: > 100 µM
- TGI [37]: > 100 µM
- TGI [38]: > 100 µM
- TGI [39]: > 100 µM
- TGI [40]: > 100 µM
- TGI [41]: > 100 µM
- TGI [42]: > 100 µM
- TGI [43]: > 100 µM
- TGI [44]: > 100 µM
- TGI [45]: > 100 µM
- TGI [46]: > 100 µM
- TGI [47]: > 100 µM
- TGI [48]: > 100 µM
- TGI [49]: > 100 µM
- TGI [50]: > 100 µM
- TGI [51]: > 100 µM
- TGI [52]: > 100 µM
- TGI [53]: > 100 µM
- TGI [54]: > 100 µM
- TGI [55]: > 100 µM
- TGI [59]: > 100 µM
- TGI [56]: > 100 µM
